Here are results for twelve molecules from patent publication US20240034737A1, “Heterocyclic Derivatives as P2X7 Receptor Antagonists” (BREYE THERAPEUTICS APS, priority 2020, published 2024).

In general, pIC50 refers to −log10 of the IC50, conventionally taken in molar units.

One series addresses mP2X7 (Mus musculus (Mouse), UniProt Q9Z1M0). The experiment in a line: mP2X7 channel calcium-influx assay (Fluo-8 NW, FLIPR TETRA, Bz-ATP stimulation). The class given is cell-based. In outline: (§1)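 HEK-293 cells stably expressing human or mouse P2X7, preloaded with Fluo-8 NW dye for 1 h at RT. Compounds added, Bz-ATP-evoked Ca2+ influx followed as fluorescence kinetics over 5 min on FLIPR TETRA; A438079 served as reference antagonist.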

In a further series the target is P2X7 receptor (Homo sapiens (Human), UniProt Q99572). The experiment in a line: Human P2X7 channel calcium-influx assay (Fluo-8 NW, FLIPR TETRA, Bz-ATP stimulation). The class given is cell-based. As to conditions: HEK-293 cells stably transfected with P2X7 receptor, Low Divalent Cation Assay Buffer, read-out: hP2X7 IC50. The method in brief:
as §1

In another series the test system is CYP4503A4. Kind of series: CYP4503A4 metabolic induction (mRNA expression) in human cryopreserved platable hepatocytes. It counts as in vitro ADME. The following applies: 10 μM test compound, two days treatment, mRNA by QuantiGene Plex 2.0. Here is the method:
In Vitro Evaluation of Test Compounds for CYP4503A4 Metabolic Induction Using Human Liver Hepatocytes.
CYP induction assessment was performed using human cryopreserved platable hepatocytes. Test compound was assessed at three or six different concentrations in duplicate.
A sandwich culture of platable cryopreserved hepatocytes was used with one day recovery period after plating. Assessment of cell morphology and confluency was performed using a phase-contrast microscope for representative wells.
The plated hepatocyte cell monolayers were treated with test compound, negative and positive controls for two days changing medium every 24 hours. On the fourth day, assessment of cell morphology and confluency was repeated to ensure cell monolayer integrity. Assessment of cell morphology and confluency was performed using a phase-contrast microscope for representative wells.
Cell monolayers were assessed for test compound cytotoxicity by an adenosine triphosphate (ATP) content assay in a separate plate.
Expression levels of mRNA for CYP1A2, CYP2B6, and CYP3A4 were evaluated by the QuantiGene® Plex 2.0 methodology.

pIC50: −log10 of the molar value.

mP2X7, sequence (Q9Z1M0 whole entry): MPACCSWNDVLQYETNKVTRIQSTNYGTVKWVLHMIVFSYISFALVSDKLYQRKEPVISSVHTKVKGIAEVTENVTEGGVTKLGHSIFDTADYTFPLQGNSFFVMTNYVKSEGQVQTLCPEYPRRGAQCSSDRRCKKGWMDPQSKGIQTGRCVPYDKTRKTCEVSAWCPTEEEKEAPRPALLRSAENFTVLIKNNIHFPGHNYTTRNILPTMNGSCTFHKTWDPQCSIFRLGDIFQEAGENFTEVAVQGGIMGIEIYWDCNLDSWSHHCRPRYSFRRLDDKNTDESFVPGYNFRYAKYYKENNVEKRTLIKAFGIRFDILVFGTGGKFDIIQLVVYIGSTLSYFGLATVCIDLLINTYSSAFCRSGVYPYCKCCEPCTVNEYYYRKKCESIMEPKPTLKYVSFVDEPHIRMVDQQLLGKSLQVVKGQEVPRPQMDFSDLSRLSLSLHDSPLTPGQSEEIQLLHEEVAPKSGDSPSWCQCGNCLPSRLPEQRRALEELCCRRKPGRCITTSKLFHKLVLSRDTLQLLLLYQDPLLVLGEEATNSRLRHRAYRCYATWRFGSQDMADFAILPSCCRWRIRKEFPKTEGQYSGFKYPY
P2X7 receptor, sequence (Q99572 whole entry): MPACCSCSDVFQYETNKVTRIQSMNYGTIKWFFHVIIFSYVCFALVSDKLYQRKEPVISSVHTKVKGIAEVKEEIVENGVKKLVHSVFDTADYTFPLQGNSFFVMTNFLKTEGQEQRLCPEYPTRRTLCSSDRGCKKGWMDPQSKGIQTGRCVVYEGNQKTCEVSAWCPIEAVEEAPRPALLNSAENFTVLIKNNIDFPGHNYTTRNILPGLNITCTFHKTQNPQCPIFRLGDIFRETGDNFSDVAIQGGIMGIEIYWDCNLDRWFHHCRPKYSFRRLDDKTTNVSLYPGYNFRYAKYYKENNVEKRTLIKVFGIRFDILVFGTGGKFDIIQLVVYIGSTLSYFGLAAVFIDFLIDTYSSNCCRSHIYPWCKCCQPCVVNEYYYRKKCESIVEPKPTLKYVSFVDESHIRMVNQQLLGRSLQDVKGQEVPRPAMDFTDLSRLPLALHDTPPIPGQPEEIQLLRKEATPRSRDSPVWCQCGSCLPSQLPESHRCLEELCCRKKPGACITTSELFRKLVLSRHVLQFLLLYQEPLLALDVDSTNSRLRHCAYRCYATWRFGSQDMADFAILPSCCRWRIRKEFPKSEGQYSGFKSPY

Regarding `Cc1ccc(OCC2CCN(C(CNC(=O)c3c(F)cccc3Cl)c3scnc3C(F)F)CC2)nn1` (stereo not drawn) [Example 101, 2-Chloro-N-{2-[4-(difluoromethyl)-1,3-thiazol-5-yl]-2-(4-{[(6-methylpyridazin-3-yl)oxy]methyl}piperidin-1-yl)ethyl}-6-fluorobenzamide], the pIC50 on mP2X7 is 7.12; on P2X7 receptor, 7.06. Also, the “CYP4503A4 mRNA fold increase at 10 μM” value with CYP4503A4 is recorded as 3.9 fold.
For `O=C(NCC(c1scnc1C(F)F)N1CCC(COc2cccc(F)n2)CC1)c1c(F)cccc1Cl` (stereo not drawn) [Example 124, 2-Chloro-N-{2-[4-(difluoromethyl)-1,3-thiazol-5-yl]-2-(4-{[(6-fluoropyridin-2-yl)oxy]methyl}piperidin-1-yl)ethyl}-6-fluorobenzamide], the pIC50 is 7.73 on mP2X7 and 7.74 at P2X7 receptor. In addition, in the series on CYP4503A4, the “CYP4503A4 mRNA fold increase at 10 μM” value was 6.9 fold.
Consider `O=C(NCC(c1scnc1C(F)F)N1CCC(Oc2nccc(Cl)n2)CC1)c1c(F)cccc1Cl` (stereo not drawn) [Example 75, 2-chloro-N-(2-{4-[(4-chloropyrimidin-2-yl)oxy]piperidin-1-yl}-2-[4-(difluoromethyl)-1,3-thiazol-5-yl]ethyl)-6-fluorobenzamide], for which the negative-log IC50 (pIC50) was 7.09 at mP2X7 and 7.27 at P2X7 receptor. Also, the “CYP4503A4 mRNA fold increase at 10 μM” value with CYP4503A4 was 2.2 fold.
Take `COc1cc(OC2CCN(C(CNC(=O)c3c(F)cccc3Cl)c3scnc3C(F)F)CC2)ncn1` (stereo not drawn) [Example 65, 2-Chloro-N-{2-[4-(difluoromethyl)-1,3-thiazol-5-yl]-2-{4-[(6-methoxypyrimidin-4-yl)oxy]piperidin-1-yl}ethyl}-6-fluorobenzamide]: the pIC50 on mP2X7 was 7.02; at P2X7 receptor, 7.25. The “CYP4503A4 mRNA fold increase at 10 μM” value with CYP4503A4 was 4.9 fold.
In the case of `O=C(NCC(c1scnc1C(F)F)N1CCC(Oc2ccc(F)nn2)CC1)c1c(F)cccc1Cl` (stereo not drawn) [Example 32, 2-Chloro-N-{2-[4-(difluoromethyl)-1,3-thiazol-5-yl]-2-{4-[(6-fluoropyridazin-3-yl)oxy]piperidin-1-yl}ethyl}-6-fluorobenzamide], the figures for the pIC50 on mP2X7 and at P2X7 receptor were 7.09 and 7.67, respectively. Besides, the “CYP4503A4 mRNA fold increase at 10 μM” value with CYP4503A4 came out at 6.0 fold.
For `O=C(NCC(c1scnc1C(F)F)N1CCC(Oc2cc(F)ccn2)CC1)c1c(F)cccc1Cl` (stereo not drawn) [Example 81, 2-chloro-N-{2-[4-(difluoromethyl)-1,3-thiazol-5-yl]-2-{4-[(4-fluoropyridin-2-yl)oxy]piperidin-1-yl}ethyl}-6-fluorobenzamide], the negative-log IC50 (pIC50) is 7.42 at mP2X7 and 7.70 on P2X7 receptor. Besides, the “CYP4503A4 mRNA fold increase at 10 μM” value in the series on CYP4503A4 came out at 4.8 fold.
As to `O=C(NCC(c1scnc1C(F)F)N1CCC(COc2ccc(F)nn2)CC1)c1c(F)cccc1Cl` (stereo not drawn) [Example 104, 2-Chloro-N-{2-[4-(difluoromethyl)-1,3-thiazol-5-yl]-2-(4-{[(6-fluoropyridazin-3-yl)oxy]methyl}piperidin-1-yl)ethyl}-6-fluorobenzamide], the pIC50 at mP2X7 is 6.99; on P2X7 receptor it was 7.30. Also, the “CYP4503A4 mRNA fold increase at 10 μM” value in the series with CYP4503A4 amounted to 7.4 fold.
For `O=C(NCC(c1scnc1C(F)F)N1CCC(Oc2nccn3cnnc23)CC1)c1c(F)cccc1Cl` (stereo not drawn) [Example 46, 2-Chloro-N-{2-[4-(difluoromethyl)-1,3-thiazol-5-yl]-2-(4-{[1,2,4]triazolo[4,3-a]pyrazin-8-yloxy}piperidin-1-yl)ethyl}-6-fluorobenzamide], the results for the negative-log IC50 (pIC50) on mP2X7 and on P2X7 receptor were 6.18 and 6.58, respectively. The “CYP4503A4 mRNA fold increase at 10 μM” value with CYP4503A4 stood at 4.5 fold.
For `O=C(NCC(c1scnc1C(F)F)N1CCC(COc2cc(F)ncn2)CC1)c1c(F)cccc1Cl` (stereo not drawn) [Example 103, 2-Chloro-N-{2-[4-(difluoromethyl)-1,3-thiazol-5-yl]-2-(4-{[(6-fluoropyrimidin-4-yl)oxy]methyl}piperidin-1-yl)ethyl}-6-fluorobenzamide], in that order: 7.47, 7.68 and 5.0 fold.
The matching figures for `O=C(NCC(c1scnc1C(F)F)N1CCC(Oc2nc(C3CC3)ns2)CC1)c1c(F)cccc1Cl` (stereo not drawn) [Example 13, 2-Chloro-N-(2-{4-[(3-cyclopropyl-1,2,4-thiadiazol-5-yl)oxy]piperidin-1-yl}-2-[4-(difluoromethyl)-1,3-thiazol-5-yl]ethyl)-6-fluorobenzamide]: 7.48, 7.72 and 9.7 fold.
As to `O=C(NCC(c1scnc1C(F)F)N1CCC(COc2nccn3nccc23)CC1)c1c(F)cccc1Cl` (stereo not drawn) [Example 116, 2-Chloro-N-{2-[4-(difluoromethyl)-1,3-thiazol-5-yl]-2-[4-({pyrazolo[1,5-a]pyrazin-4-yloxy}methyl)piperidin-1-yl]ethyl}-6-fluorobenzamide], the results for the negative-log IC50 (pIC50) at mP2X7 and on P2X7 receptor were 7.95 and 7.55, respectively. For the same molecule, in the series on CYP4503A4, the “CYP4503A4 mRNA fold increase at 10 μM” value is listed as 9.8 fold.
Take `O=C(NCC(c1scnc1C(F)F)N1CCC(COc2ccnc(F)c2)CC1)c1c(F)cccc1Cl` (stereo not drawn) [Example 125, 2-Chloro-N-{2-[4-(difluoromethyl)-1,3-thiazol-5-yl]-2-(4-{[(2-fluoropyridin-4-yl)oxy]methyl}piperidin-1-yl)ethyl}-6-fluorobenzamide]: the pIC50 on mP2X7 was 7.64; at P2X7 receptor it was 7.79. In the series on CYP4503A4, the “CYP4503A4 mRNA fold increase at 10 μM” value was determined as 5.5 fold.
